Assay results from patent US6348464B1, “Pyrrolecarbonylimino derivatives as naaladase inhibitors” (Guilford Pharmaceuticals, Inc., priority 1999, dated 2002).
pEC50: −log10 of the molar value. Counter-ions that a name gives are not always drawn. Like-named read-outs stand apart in the source and are kept apart here.

What was measured:
NAALADase = target: T1, NAALADase (Homo sapiens, UniProt Q04609); assay: In vitro inhibition of NAALADase activity; assay type: biochemical; conditions: 3-H-NAAG substrate, 37° C.; read-out: K1 (nM), in vitro inhibition of NAALADase activity
T1 construct: from tissue
T1 sequence (Q04609 whole entry): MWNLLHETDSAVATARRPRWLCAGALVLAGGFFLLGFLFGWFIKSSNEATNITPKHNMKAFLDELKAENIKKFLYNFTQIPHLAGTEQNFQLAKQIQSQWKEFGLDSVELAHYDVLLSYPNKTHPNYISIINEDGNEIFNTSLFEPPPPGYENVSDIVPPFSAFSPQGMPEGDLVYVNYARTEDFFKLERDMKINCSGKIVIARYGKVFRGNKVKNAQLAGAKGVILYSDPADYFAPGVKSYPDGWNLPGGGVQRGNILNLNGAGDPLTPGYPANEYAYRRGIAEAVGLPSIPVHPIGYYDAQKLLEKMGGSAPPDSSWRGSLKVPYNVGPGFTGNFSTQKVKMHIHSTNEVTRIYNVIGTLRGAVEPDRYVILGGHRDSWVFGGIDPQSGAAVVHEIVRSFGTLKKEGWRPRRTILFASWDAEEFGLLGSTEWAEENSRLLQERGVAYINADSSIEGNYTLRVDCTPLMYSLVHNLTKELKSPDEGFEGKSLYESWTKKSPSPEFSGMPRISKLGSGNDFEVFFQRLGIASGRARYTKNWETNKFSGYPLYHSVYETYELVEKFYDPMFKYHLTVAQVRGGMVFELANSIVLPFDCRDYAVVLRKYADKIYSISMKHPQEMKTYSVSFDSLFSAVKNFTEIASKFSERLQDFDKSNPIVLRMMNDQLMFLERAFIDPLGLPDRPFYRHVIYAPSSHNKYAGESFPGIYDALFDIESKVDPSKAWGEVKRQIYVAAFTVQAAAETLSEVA
Experimental: Protocol For Assaying In Vitro Inhibition of NAALADase Activity
The following were combined in each assay tube: 100 μL of 10 mM CoCl2, 250 μL of 200 mM Tris chloride, 100 μL tissue, 100 μL of 10 mM NAALADase inhibitor in Bakers H2O, and Bakers H2O to make a total volume of 950 μL. Each tube was then incubated for 10 minutes in a 37° C. water bath. 50 μL of 3-H-NAAG was then added to each assay tube and incubated for an additional 15 minutes in a 37° C. water bath. The assay was stopped by adding 1.0 ml of 0.1 M sodium phosphate.
Glutamate released by the action of the NAALADase enzyme was separated from the assay solution using an anion exchange resin. The resin was equilibrated to 25° C., 2.0 ml of the resin was added to a Pasteur pipette pre-loaded with a single glass bead, and each column was washed twice with distilled H2O. A column was placed over a scintillation vial and 200 μL of an assay sample was loaded onto the column. After draining, glutamate was eluted using two 1.0 ml washes of 1 M formic acid. After addition of 10 ml of scintillation cocktail, each sample was counted for 2 minutes on a scintillation counter.

cortical cell cultures = assay: In vitro assay on ischemia (potassium cyanide and 2-deoxyglucose insult); assay type: cell-based; conditions: 1 h, read-out: EC50, concentration required to cause a 50% reduction in glutamate toxicity following an ischemic insult
Experimental: To examine the in vitro effect of the compounds of formula I on ischemia, cortical cell cultures were treated with various compounds of formula I during an ischemic insult utilizing potassium cyanide and 2-deoxyglucose, and for one hour thereafter (for experimental details, see Vornov et al., J. Neurochem., Vol. 65, No. 4, pp. 1681-1691 (1995)). Neuroprotective effect is expressed as EC50, the concentration of the compound which is required to cause a 50% reduction in glutamate toxicity following an ischemic insult.

SMILES	Ki (NAALADase) [nM]	pEC50 (cortical cell cultures; cortical cell cultures, treated during potassium cyanide and 2-deoxyglucose insult and for one hour thereafter)	pEC50 (cortical cell cultures)
O=C(Nc1ccc(S(=O)(=O)O)c2cc(S(=O)(=O)O)cc(S(=O)(=O)O)c12)c1cccc([N+](=O)[O-])c1 [8-(3-nitrobenzamido)-1,3,5-naphthalenetrisulfonic acid]	20200	< 6.00	
Cc1ccc(C(=O)Nc2ccc(S(=O)(=O)O)c3cc(S(=O)(=O)O)cc(S(=O)(=O)O)c23)cc1NC(=O)c1cccc(NC(=O)Nc2cccc(C(=O)Nc3cc(C(=O)Nc4ccc(S(=O)(=O)O)c5cc(S(=O)(=O)O)cc(S(=O)(=O)O)c45)ccc3C)c2)c1 [Suramin, sodium salt, 8,8′-[carbonylbis[imino-3,1-phenylenecarbonylimino (4-methyl-3,1-phenylene)carbonylimino]]bis-1,3,5-naphthalenetrisulfonic acid hexasodium salt]	527		7.61
